Experiments:
jejunum everted sac = test: In vitro everted intestinal sac preparation, OCT uptake; assay type: in vitro ADME, rat; conditions: for AUC, % of the correspondent control group (Group A1): PH rats; for AUC, % of the correspondent control group (Group A1) / AUC, % of the correspondent control group (Group A): sac lumen 10-120 min; for AUC, % of the correspondent control group (Group A): healthy rats
Description: Rat jejunum (10 ± 1 cm) was transected approximately 2 cm distal to the ligament of Treitz. […] The AUC was calculated using the trapezoid method. These experiments were performed in both control and PH rats; the latter was called Group A1, B1, C1, and D1 (n = 4 per group).
(§1) Isocratic chromatographic separation was performed using a Hypersil BDS-C18 column (150 mm × 4.6 mm i.d., 5 µm; Dalian Elite Analytical Instruments Co. Ltd., China) maintained at room temperature. A mixture of 40% methanol-60% water with 0.1% formic acid (60:40, v/v) was used as the mobile phase at a flow rate of 0.5 mL/min. An API 3200 triple-quadrupole mass spectrometer (Applied Biosystems, Concord, Ontario, Canada) was operated with a Turbo Ionspray interface in positive ion mode. The ion spray voltage was set to + […], heater gas temperature to 500 °C, nebulizer gas (Gas 1) at 40 psi, heater gas (Gas 2) at 40 psi, curtain gas at 10 psi, and collision gas at 16 psi.

recombinant human CYP3A4 [1] = molecular target: T1, recombinant human CYP3A4 (Homo sapiens, UniProt P08684); test: OCT metabolism by recombinant human cytochrome P450 3A4; assay type: in vitro ADME; conditions: 10 min incubation, CYP3A4 2.5 mg/mL, NADPH; many different metabolites by LC–MS/MS
T1 construct: purchased BD Gentest (Supersomes)
T1 sequence (P08684 whole entry): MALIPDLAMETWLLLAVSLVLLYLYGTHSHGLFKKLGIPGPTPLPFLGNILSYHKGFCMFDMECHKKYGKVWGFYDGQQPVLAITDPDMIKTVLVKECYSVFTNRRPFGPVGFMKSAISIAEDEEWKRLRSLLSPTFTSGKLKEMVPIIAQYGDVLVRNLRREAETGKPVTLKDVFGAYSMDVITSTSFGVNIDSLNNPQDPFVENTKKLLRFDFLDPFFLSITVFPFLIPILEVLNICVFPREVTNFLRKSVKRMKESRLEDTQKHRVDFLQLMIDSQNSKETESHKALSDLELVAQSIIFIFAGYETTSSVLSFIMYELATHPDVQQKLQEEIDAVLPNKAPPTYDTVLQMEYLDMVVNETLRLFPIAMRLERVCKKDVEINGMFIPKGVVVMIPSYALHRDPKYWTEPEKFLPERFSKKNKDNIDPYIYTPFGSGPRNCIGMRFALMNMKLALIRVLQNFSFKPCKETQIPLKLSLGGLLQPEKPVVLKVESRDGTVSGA
Description: All incubations were performed at 37 °C in a water bath. Recombinant human cDNA-expressing P450 isozyme 3A4 (BD Gentest Supersomes) was carefully thawed on ice prior to each experiment. […] […] Control samples without NADPH and samples without OCT were also included. […] Each sample was tested 4 times.
as §1

proximal jejunum = test: In situ jejunal perfusion, OCT absorption into portal vein blood; assay type: in vivo, rat; conditions: for AUC, % of the correspondent control group (Group A1): PH rats; for AUC, % of the correspondent control group (Group A1) / AUC, % of the correspondent control (Group A; OCT only): portal vein blood 5-60 min; for AUC, % of the correspondent control (Group A; OCT only): healthy rats
Description: The experimental procedure was performed as previously reported. Briefly, the mean length of the proximal jejunum (approximately 2 cm distal to the ligament of Treitz) was 10 ± 1 cm. An oxygenated Krebs–Ringer bicarbonate buffer (KRB) solution (pH 7.4) containing 0.5 mM MgCl2, 4.5 mM KCl, 120 mM NaCl, 0.7 mM Na2HPO4, 1.5 mM NaH2PO4, 1.2 mM CaCl2, 15 mM NaHCO3, and 10 mM glucose was perfused at a flow rate of 0.4 mL/min using a peristaltic pump through an inlet tube kept at 37 °C. […] The AUC was calculated using the integral method. These experiments were performed both in healthy and PH rats; the latter was called Group A1, B1, C1, and D1 (n = 4 per group).
(§2) Frozen samples were thawed at room temperature prior to their preparation. A 200-µL aliquot of cell lysate containing 1 mL Tris, 99 mL D-Hank’s, and 200 µL methyl cyanide was mixed with the sample obtained from Caco-2 experiments. The mixture was then vortexed for 1 min and centrifuged at 12,000×g for 10 min. The supernatant was transferred to a clean glass tube and evaporated to dryness at 40 °C under nitrogen. A 10-μL aliquot was injected for LC − MS/MS analysis. A total of 200 μL methanol was added to a 50-μL sample of plasma, and the mixture was vortexed and centrifuged as described above to remove precipitated proteins. A total of 200 μL supernatant was transferred and evaporated as described for the Caco-2 samples. The residue was then diluted with 100 μL mobile phase and an aliquot of 10 μL was used for LC − MS/MS analysis.
as §1

[2] = Bi-directional Caco-2 permeability (transport) assay; assay type: in vitro ADME, human
Description: (§3) Caco-2 cells (purchased from the Type Culture Collection of the Chinese Academy of Sciences, Shanghai, China) at passage 30 to 33 were used in this study. Cells were routinely cultured as previously described with minor modifications. Cells were seeded onto Transwell inserts in 12-well dishes at a density of 5 × 10^5 cells/well (#3401; 0.4 µm pore size, growth area of 1.13 cm^2, Corning, NY, USA), and the medium was replaced with D-Hanks solution every other day except for the treatment days.
Cell monolayer integrity was evaluated through the transepithelial electrical resistance (TEER) using a Millicell ERS resistance system (Millipore, Bedford, MA, USA) at 37 °C. Each TEER value was corrected for background resistance determined on an extracellular matrix-coated cell culture insert without cells.
Caco-2 transport study was performed as previously described. […] A to B assay was performed to determine the extent of OCT absorption, while B to A assay was performed to measure OCT secretion. As regard A to B assay, the apical (upper) chamber was filled with 1.6 mL test drug solution in HBSS, while the receiver basolateral (lower) compartment was filled with 0.6 mL HBSS alone. Conversely, in B to A assay the upper and lower chambers were filled with 0.6 mL HBSS and 1.6 mL test drug, respectively. […] The TEER value was determined at different incubation times to verify the integrity of the monolayer after buffer change. […] The permeability direction rate (PDR) was calculated by the ratio of Papp in the B to A direction versus that in the A to B direction, as follows: PDR=Papp(BtoA)/Papp(AtoB)
as §2, §1

recombinant human CYP3A4 [3] = molecular target: T1, recombinant human CYP3A4; test: CYP3A4 activity with and without OCT incubation (fluorescent quantitative detection kit); assay type: biochemical; conditions: OCT 400 mM
Description: All incubations were performed at 37 °C in a water bath. Recombinant human cDNA-expressing P450 isozyme 3A4 (BD Gentest Supersomes) was carefully thawed on ice prior to each experiment. […] After a 5-min pre-incubation at 37 °C, the reaction was started by the addition of NADPH and ended 30 min later by the addition of 500 µL methanol. Control samples without NADPH and samples without OCT were also included. […] Each sample was tested 4 times.

Caco-2 cells = assay type: cell-based, human; conditions: OCT concentrations of 1, 10, and 50 µM; data not shown
Description: as §3

CYP3A = test: OCT metabolism by CYP3A in rat intestinal microsomes; assay type: in vitro ADME
Description: Microsomes from the small intestine of healthy rats and PH rats were obtained as previously described, and their protein concentration (0.53 ± 0.05 mg/mL and 0.52 ± 0.06 mg/mL total protein, respectively) was measured using the BCA method (Beijing Solarbio Science & Technology Co., Ltd). […] CYP3A activity was measured using a fluorescent quantitative detection kit (Genmed Scientifics Inc., U.S.A.) with the NADPH regenerating system after pre-incubation at 37 °C for 0, 2, 10, 20 or 30 min. […] The organic phase was evaporated to dryness and the OCT content in the residue was measured by LC–MS/MS.
Each sample was tested 3 times.
as §1

[4] = 10 µM OCT alone, PH rats versus healthy rats
[5] = 10 µM OCT plus 1 mM probenecid (Group C1)
[6] = 10 µM OCT plus 1 mM verapamil hydrochloride (Group B1)
[7] = 10 µM OCT plus 1 mM verapamil hydrochloride plus 1 mM probenecid (Group D1)
[8] = 10 µM OCT plus 1 mM probenecid (Group C)
[9] = 10 µM OCT plus 1 mM verapamil hydrochloride (Group B)
[10] = 10 µM OCT plus 1 mM verapamil hydrochloride plus 1 mM probenecid (Group D)
[11] = Caco-2, OCT 1 μM, Control (no inhibitor)
[12] = Caco-2, OCT 1 μM, MRP2 and P-gp inhibition
[13] = Caco-2, OCT 1 μM, MRP2 inhibition (probenecid 1 mM)
[14] = Caco-2, OCT 1 μM, P-gp inhibition (rhodamine 123 1 mM)
[15] = Caco-2, OCT 10 μM, Control (no inhibitor)
[16] = Caco-2, OCT 10 μM, MRP2 and P-gp inhibition
[17] = Caco-2, OCT 10 μM, MRP2 inhibition (probenecid 1 mM)
[18] = Caco-2, OCT 10 μM, P-gp inhibition (rhodamine 123 1 mM)
[19] = Caco-2, OCT 50 μM, Control (no inhibitor)
[20] = Caco-2, OCT 50 μM, MRP2 and P-gp inhibition
[21] = Caco-2, OCT 50 μM, MRP2 inhibition (probenecid 1 mM)
[22] = Caco-2, OCT 50 μM, P-gp inhibition (rhodamine 123 1 mM)

C[C@@H](O)[C@@H]1NC(=O)[C@H](CCCCN)NC(=O)[C@@H](Cc2c[nH]c3ccccc23)NC(=O)[C@H](Cc2ccccc2)NC(=O)[C@@H](NC(=O)[C@H](N)Cc2ccccc2)CSSC[C@@H](C(=O)N[C@H](CO)[C@@H](C)O)NC1=O [OCT, octreotide]
AUC of group A1 as % of group A (jejunum everted sac; [4]): 21.54% | AUC, % of the correspondent control group (Group A1) (jejunum everted sac; [5]): 128.23% | AUC, % of the correspondent control group (Group A1) (jejunum everted sac; [6]): 151.82% | AUC, % of the correspondent control group (Group A1) (jejunum everted sac; [7]): 165.33% | AUC, % of the correspondent control group (Group A) (jejunum everted sac; [8]): 151.39% | AUC, % of the correspondent control group (Group A) (jejunum everted sac; [9]): 176.22% | AUC, % of the correspondent control group (Group A) (jejunum everted sac; [10]): 220.63% | Metabolism of OCT by recombinant human CYP3A4 (recombinant human CYP3A4 [1]): CYP3A4 metabolized OCT | AUC of group A1 as % of group A (proximal jejunum; [4]): 96% | AUC, % of the correspondent control group (Group A1) (proximal jejunum; [5]): 236.28% | AUC, % of the correspondent control group (Group A1) (proximal jejunum; [6]): 384.61% | AUC, % of the correspondent control group (Group A1) (proximal jejunum; [7]): 461.78% | AUC, % of the correspondent control (Group A; OCT only) (proximal jejunum; [8]): 418.95% | AUC, % of the correspondent control (Group A; OCT only) (proximal jejunum; [9]): 521.08% | AUC, % of the correspondent control (Group A; OCT only) (proximal jejunum; [10]): 618.40% | Papp A→B [2, 11]: 0.005 ± 0.001 ×10⁻⁶ cm/s | Papp B→A [2, 11]: 0.021 ± 0.003 ×10⁻⁶ cm/s | Papp A→B [2, 12]: 0.022 ± 0.002 ×10⁻⁶ cm/s | Papp B→A [2, 12]: 0.006 ± 0.001 ×10⁻⁶ cm/s | Papp A→B [2, 13]: 0.007 ± 0.001 ×10⁻⁶ cm/s | Papp B→A [2, 13]: 0.006 ± 0.001 ×10⁻⁶ cm/s | Papp A→B [2, 14]: 0.01 ± 0.001 ×10⁻⁶ cm/s | Papp B→A [2, 14]: 0.012 ± 0.002 ×10⁻⁶ cm/s | Papp A→B [2, 15]: 0.127 ± 0.015 ×10⁻⁶ cm/s | Papp B→A [2, 15]: 0.565 ± 0.073 ×10⁻⁶ cm/s | Papp A→B [2, 16]: 0.368 ± 0.055 ×10⁻⁶ cm/s | Papp B→A [2, 16]: 0.193 ± 0.021 ×10⁻⁶ cm/s | Papp A→B [2, 17]: 0.149 ± 0.016 ×10⁻⁶ cm/s | Papp B→A [2, 17]: 0.31 ± 0.025 ×10⁻⁶ cm/s | Papp A→B [2, 18]: 0.168 ± 0.018 ×10⁻⁶ cm/s | Papp B→A [2, 18]: 0.297 ± 0.024 ×10⁻⁶ cm/s | Papp A→B [2, 19]: 0.23 ± 0.021 ×10⁻⁶ cm/s | Papp B→A [2, 19]: 1.33 ± 0.16 ×10⁻⁶ cm/s | Papp A→B [2, 20]: 1.73 ± 0.138 ×10⁻⁶ cm/s | Papp B→A [2, 20]: 0.981 ± 0.082 ×10⁻⁶ cm/s | Papp A→B [2, 21]: 0.353 ± 0.032 ×10⁻⁶ cm/s | Papp B→A [2, 21]: 1.13 ± 0.097 ×10⁻⁶ cm/s | Papp A→B [2, 22]: 1.19 ± 0.072 ×10⁻⁶ cm/s | Papp B→A [2, 22]: 1.04 ± 0.084 ×10⁻⁶ cm/s | Change in activity of recombinant human CYP3A4 after pre-incubation with OCT (recombinant human CYP3A4 [3]): No changes | Caco-2 cell death (LDH-cytotoxicity assay) (Caco-2 cells): No sign of Caco-2 cell death | OCT level, PH + OCT group versus N + OCT group (CYP3A; intestinal microsomes of PH versus healthy rats, OCT 1000 ng/mL, 37 °C, p < 0.05): significantly lower | OCT level in the presence of the CYP3A inhibitor ketoconazole (CYP3A; intestinal microsomes of healthy and PH rats, OCT 1000 ng/mL, ketoconazole 10 µM, p < 0.01): significantly and equally increased | Metabolism of OCT by CYP3A (CYP3A; rat intestinal microsomes, NADPH-generating system): metabolized by CYP3A
